Experimental data: patent US20240424152A1, “AGENTS, COMPOSITIONS, AND METHODS FOR CANCER DETECTION” (The Johns Hopkins University, priority 2021, published 2024)
Entries after “also recorded” stand apart in the source; their conditions may differ. No end group written: not given here. *: point of attachment. NOTA = O=C(O)CN1CCN(CC(=O)O)CCN(CC(=O)*)CC1

Legend:
[1] = test system: human triple negative breast cancer cell line, MDA-MB-231; experiment: Cellular uptake of 18F-labeled peptide with blocking by unlabeled peptide; format: cell-based; details: MDA-MB-231 cells, 74 KBq 18F-labeled peptide, 37° C., blocking with 10-fold non-radioactive peptide; FIG. 1
Description: Prepared peptides were first analyzed in vitro using the human triple negative breast cancer cell line, MDA-MB-231. In brief, cells were detached using non-enzymatic buffer and 0.5 million cells per tube will be incubated with 74 KBq (2 μCi) of ^18F-labeled peptide in 100 μL phosphate-buffered saline (PBS) at 37° C. Experiments were done in triplicate and repeated three times to ensure reproducibility. Blocking was carried out using a 10-fold molar equivalence of the corresponding non-radioactive peptide analogue. The integrity of the radiolabeled compounds and their extent of decomposition was analyzed by RP-HPLC.

MDA-MB-231 tumors = experiment: In vivo PET imaging in mice xenografted with MDA-MB-231 breast tumors; details: NOG mice, MDA-MB-231 xenograft, intravenous, 30 min post tracer injection; FIG. 2
Description: All animal studies were carried out per regulations set forth and approved by the Johns Hopkins Animal Care and Use Committee at the Johns Hopkins Molecular Imaging Service Center. Female, 6-8 weeks old, immunodeficient (NOG) mice were inoculated with MDA-MB-231 (2 million) cells in 100 μL of Hank's balanced salt solution in the top mammary fat pad. Tumors averaging 200-300 mm^3 (typically 14 days after inoculation) were used for in vivo imaging and ex vivo biodistribution studies.
For PET imaging, mice were intravenously injected with 9-10 MBq (240-270 μCi) of the radiolabeled peptide in 200 μL of saline. Whole body PET imaging (2 beds; 15 min per bed) was carried out using a SEDCAL SuperArgus small animal PET/CT scanner 30 min post tracer injection. Following PET image acquisition, a CT scan (512 projections) was obtained on the same system for anatomical co-registration. PET data were reconstructed using the 3-dimensional ordered-subsets expectation maximization (3D-OSEM) algorithm and corrected for dead time and radioactive decay. Final data visualization and image generation was carried out using the Amira (FEI) software. Quantitative in vivo image analysis was done in AMIDE 1.0.5 (SourceForge) using ellipsoid region-of-interest volume integrations. Percentage of injected dose per cubic centimeter of tissue (% ID/cc) was calculated based on an external calibration factor obtained from a known quantity of radioactivity.

| Substance | cellular uptake [1] | accumulation in breast tumors (PET) (MDA-MB-231 tumors) | tumor uptake on PET compared to Pep61 (MDA-MB-231 tumors) |
| --- | --- | --- | --- |
| A-D-K(NOTA)-P-D-M-G-E-I-A-S-F-D-K (ADK(NOTA)PDMGEIASFDK; also: 18F label) [Pep61, tested 18F-labeled] | taken up by MDA-MB-231 cells in a specific manner | clear accumulation in breast tumors; also recorded: Accumulation and visualization of both peptides in breast tumors |  |
| A-D-K-P-D-M-G-E-I-A-S-F-D-K(NOTA) (ADKPDMGEIASFDK(NOTA); also: 18F label) [Pep62, tested 18F-labeled] | taken up by MDA-MB-231 cells in a specific manner | clear accumulation in breast tumors; also recorded: Accumulation and visualization of both peptides in breast tumors | higher and more uniform uptake compared to Pep61 |
